Literature values in the PKSmart pharmacokinetics tables (Seal et al. 2025).

Key:
[1] = Lombardo et al. 2013, J Clin Pharmacol 53:178, doi 10.1177/0091270012440282; conditions: for Vd / clearance: in vivo, iv; for fraction unbound: plasma
[2] = Lombardo, Berellini, Obach 2018, Drug Metab Dispos 46:1466, doi 10.1124/dmd.118.082966; conditions: human; for MRT / Vd / clearance / half-life: in vivo, iv; for fraction unbound: plasma

Compound	Vd ([1]; rat)	clearance ([1]; rat)	MRT [2]	Vd [2]	clearance [2]	half-life [2]	fraction unbound [2]	Vd ([1]; dog)	clearance ([1]; dog)	fraction unbound ([1]; dog)	Vd ([1]; monkey)	clearance ([1]; monkey)	fraction unbound ([1]; monkey)	fraction unbound ([1]; rat)
NCCC(O)(P(=O)(O)O)P(=O)(O)O	0.18 L/kg	15.2 mL/min/kg	12 h	1.8 L/kg	2.5 mL/min/kg	32 h	0.7							
C[C@@H](O)C1C(=O)N2C(C(=O)O)=C(S[C@@H]3CNC(C(=O)N(C)C)C3)[C@H](C)[C@H]12 (stereo partly drawn)	0.14 L/kg	26.4 mL/min/kg	1.3 h	0.3 L/kg	3.9 mL/min/kg	1 h	0.87	0.22 L/kg	4 mL/min/kg	0.726	0.23 L/kg	7.5 mL/min/kg	0.666	0.5
Cc1nc2sccn2c(=O)c1CCN1CCC(=C(c2ccc(F)cc2)c2ccc(F)cc2)CC1	8 L/kg	26.7 mL/min/kg	46.1 h	1.41 L/kg	0.51 mL/min/kg	40 h	0.008							0.015
C[C@H](Cn1cnc2c(N)ncnc21)OCP(=O)(O)O			3.8 h	0.83 L/kg	3.1 mL/min/kg	5.8 h	0.93	0.9 L/kg	5.9 mL/min/kg			16.2 mL/min/kg		
NC(=O)c1csc([C@@H]2O[C@H](CO)[C@@H](O)[C@H]2O)n1			7.6 h	1.1 L/kg		5.9 h	0.47	0.99 L/kg		0.85	2 L/kg		1	
CCOC(=O)C1(c2ccccc2)CCN(C)CC1	9.2 L/kg	245 mL/min/kg	6.4 h	2.3 L/kg	4.9 mL/min/kg	7.9 h	0.42	2.4 L/kg	43 mL/min/kg					
CCN(CC)CCNC(=O)c1ccc(NS(C)(=O)=O)cc1	2.08 L/kg	25.6 mL/min/kg	3.7 h	0.82 L/kg	3.7 mL/min/kg	3.8 h		1.4 L/kg	9 mL/min/kg					
CC1=NC(=O)[C@](CCN(C(C)C)C(C)C)(c2ccccc2)[C@H]2CCCCN12	4.2 L/kg	48 mL/min/kg	1.58 h	0.58 L/kg	6.79 mL/min/kg	1.89 h	0.7	1.3 L/kg	12 mL/min/kg	0.618	1.6 L/kg	20 mL/min/kg	0.656	0.63
CC(C)NCC(O)COc1cccc2[nH]ccc12 (stereo not drawn)	1.36 L/kg		2.6 h	1.2 L/kg		2.2 h		17 L/kg						
CC1(C)S[C@@H]2C(NC(=O)C(N)c3ccc(O)cc3)C(=O)N2C1C(=O)O (stereo partly drawn)	0.5 L/kg	17 mL/min/kg	1.3 h	0.25 L/kg	3.3 mL/min/kg	1.1 h		0.31 L/kg	3.4 mL/min/kg	0.66				
O=C1c2ccccc2S(=O)(=O)N1CCCCNC[C@H]1CCc2ccccc2O1	1.48 L/kg	38.3 mL/min/kg	1.6 h	0.21 L/kg	2.2 mL/min/kg	1.2 h								0.054
CN(C(=O)c1c(O)c2ccccc2n(C)c1=O)c1ccccc1	0.32 L/kg	0.17 mL/min/kg	43 h	0.21 L/kg	0.082 mL/min/kg	31 h								
Cc1nc2n(c(=O)c1CCN1CCC(c3noc4cc(F)ccc34)CC1)CCCC2	3.6 L/kg	71.7 mL/min/kg				3.2 h				0.083			0.084	0.118
COc1ccc(C(CN(C)C)C2(O)CCCCC2)cc1 (stereo not drawn)	6.6 L/kg	64.5 mL/min/kg	5.2 h	4.4 L/kg	14 mL/min/kg	5 h		3.3 L/kg	13.5 mL/min/kg	0.593	3.5 L/kg	41 mL/min/kg	0.708	
COC(=O)C1=C(C)NC(C)=C(C(=O)OCCN(C)Cc2ccccc2)C1c1cccc([N+](=O)[O-])c1 (stereo not drawn)	1.9 L/kg		1.5 h	1 L/kg		4.1 h		2.39 L/kg		0.062	1.23 L/kg		0.06	0.084
CN1CCN(c2c(F)cc3c(=O)c(C(=O)O)cn(CCF)c3c2F)CC1	1.3 L/kg	5.8 mL/min/kg	11 h	1.6 L/kg	2.4 mL/min/kg	8.6 h		1.3 L/kg	1.6 mL/min/kg	0.51	1.2 L/kg	4 mL/min/kg	0.607	0.49
C[C@@H]1O[C@@H]1P(=O)(O)O			2.7 h	0.32 L/kg	2 mL/min/kg	1.9 h		0.77 L/kg	6.9 mL/min/kg	1				
CCN1CCC[C@H]1CNC(=O)c1c(OC)ccc(Br)c1OC	4.5 L/kg	170 mL/min/kg	6.4 h	0.65 L/kg	1.7 mL/min/kg	5.5 h		1.6 L/kg	4.9 mL/min/kg	0.12				0.74
CN(Cc1cnc2nc(N)nc(N)c2n1)c1ccc(C(=O)NC(CCC(=O)O)C(=O)O)cc1 (stereo not drawn)			3.4 h	0.43 L/kg	2.1 mL/min/kg									0.68
Cc1ccc(C(=O)c2cc(O)c(O)c([N+](=O)[O-])c2)cc1	0.21 L/kg	8.8 mL/min/kg	1.1 h	0.12 L/kg	1.9 mL/min/kg	1.1 h	0.0012	0.16 L/kg	1.9 mL/min/kg					
